Measured values taken from ChEMBL document CHEMBL1156728, “Allele-specific inhibition of divergent protein tyrosine phosphatases with a single small molecule” (Bioorg Med Chem, 2008).
pKi: −log10 of the molar value.

Key:
[1] = Inhibition of CCPGCC hexapeptide insertion containing TCPTP-187 mutant
[2] = Inhibition of CCPGCC hexapeptide insertion containing PTPalpha-406 mutant at 1 uM; settings: TDE = time-dependent effect
[3] = Inhibition of CCPGCC hexapeptide insertion containing PTPH1-816 mutant at 1 uM; settings: TDE = time-dependent effect
[4] = Inhibition of CCPGCC hexapeptide insertion containing HePTP-211 mutant
[5] = Inhibition of CCPGCC hexapeptide insertion containing PTP-PEST-204 mutant
[6] = Inhibition of CCPGCC hexapeptide insertion containing PTPalpha-406 mutant
[7] = Inhibition of CCPGCC hexapeptide insertion containing PTPH1-816 mutant
[8] = Inhibition of CCPGCC hexapeptide insertion containing PTP1B-186 mutant
[9] = Inhibition of CCPGCC hexapeptide insertion containing FAP1-2364 mutant

SMILES: O=C(O)c1ccccc1-c1c2ccc(=O)c([As]3SCCS3)c-2oc2c([As]3SCCS3)c(O)ccc12
- pKi [1]: 7.77
- Activity [2]: tde
- Activity [3]: tde
- pKi [4]: 7.05
- pKi [5]: 7.28
- pKi [6]: 7.41
- pKi [7]: 7.42
- pKi [8]: 7.34
- pKi [9]: 6.43
